The source of these data is PubChem BioAssay (NCI).

Test systems include OVCAR-4 ovarian; SNB-75 CNS; HOP-62 NSCLC; M14 melanoma; HCT-116 colon; U251 CNS; TK-10 renal; OVCAR-5 ovarian; A549 NSCLC; HCC-2998 colon.
Holding throughout (assay): NCI-60 cell line screen, 48 h

SMILES strings stand for the structures.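 In this assay, cells in 96-well plates receive the compound at five concentrations for 48 hours. Endpoints are linearly interpolated between the surrounding concentrations. Abbreviation: GI50, concentration required for 50% inhibition of growth. TGI denotes the concentration required for complete inhibition of growth.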

In the case of `Cc1ccc(S(=O)(=O)Oc2ccc([N+](=O)[O-])cc2[N+](=O)[O-])cc1`, the GI50 in the experiment on OVCAR-4 ovarian is 7.51 µM; with SNB-75 CNS it was 6.77 µM; in the experiment with HOP-62 NSCLC it was 13.6 µM; with M14 melanoma, 2.57 µM; with HCT-116 colon, 3.16 µM; in the experiment with U251 CNS, 3.83 µM. The GI50 in the experiment with TK-10 renal was 4.54 µM; with OVCAR-5 ovarian, 8.01 µM; in the experiment on A549 NSCLC, 8.53 µM. Also, the TGI in the experiment with OVCAR-4 ovarian amounted to 20.4 µM; in the experiment with SNB-75 CNS it was 21.3 µM; with HOP-62 NSCLC, 30.5 µM; with M14 melanoma it was 10.9 µM; with HCT-116 colon, 13.2 µM; in the experiment on U251 CNS it was 14.5 µM. Besides, the figures for the TGI in the experiment on TK-10 renal, in the experiment on OVCAR-5 ovarian and in the experiment on A549 NSCLC were 17.4 µM, 26.6 µM and 22.2 µM, respectively.

For `O=c1c(-c2ccccc2)c2oc(c1-c1ccccc1)CS(=O)(=O)CCC2`, the TGI was > 100 µM in the experiment on HOP-62 NSCLC, 26.3 µM in the experiment on HCT-116 colon, > 100 µM with TK-10 renal and > 100 µM in the experiment on A549 NSCLC.

For the compound `COc1ccc(/C=N/N=C(\N)NO)c(Cl)c1O`, the TGI in the experiment on HCC-2998 colon is 40.4 µM; with OVCAR-4 ovarian, > 100 µM; with HOP-62 NSCLC it was 72.1 µM; with HCT-116 colon, > 100 µM; with U251 CNS it was > 100 µM; in the experiment with OVCAR-5 ovarian, 6.86 µM. In the experiment on A549 NSCLC, this compound came in with a TGI of 49.6 µM.

In the case of `COC(=O)NC1(NC(=O)OC)NC(=O)c2cc(OC)c(OC)cc2N1`, the TGI in the experiment with HOP-62 NSCLC, in the experiment on M14 melanoma, in the experiment on HCT-116 colon, with TK-10 renal, with OVCAR-5 ovarian and in the experiment on A549 NSCLC was > 100 µM throughout.

On to `CC(=O)[O-].CC(=O)[O-].O=C(N/N=C/c1cc(Cl)cc(Cl)c1O)c1ccncc1.[Ni+2]`, for which the TGI in the experiment on HCC-2998 colon, with SNB-75 CNS, in the experiment on HOP-62 NSCLC, in the experiment on M14 melanoma, in the experiment on HCT-116 colon and in the experiment with U251 CNS was > 100 µM throughout. The TGI in the experiment on TK-10 renal, in the experiment on OVCAR-5 ovarian and in the experiment on A549 NSCLC was > 100 µM in each case.

In the case of `CCOC(CCCNCCCn1c2c(c3cc(OC)c(OC)cc3c1=O)C(=O)c1cc3c(cc1-2)OCO3)OCC`, the GI50 in the experiment on OVCAR-4 ovarian was 6.69 µM; in the experiment on SNB-75 CNS, 0.443 µM; in the experiment with M14 melanoma, 5.25 µM; in the experiment with HCT-116 colon, 2.41 µM; with U251 CNS, 1.51 µM; in the experiment with TK-10 renal it was 6.79 µM. Further, the GI50 with OVCAR-5 ovarian is 10.2 µM; in the experiment on A549 NSCLC, 5.73 µM. The TGI amounted to 13.1 µM in the experiment with OVCAR-4 ovarian; 10.3 µM in the experiment with SNB-75 CNS; 11.1 µM with M14 melanoma; 9.83 µM in the experiment with HCT-116 colon; 9.44 µM in the experiment on U251 CNS; 13.2 µM with TK-10 renal. Besides, the TGI in the experiment with OVCAR-5 ovarian came to 17.3 µM; in the experiment with A549 NSCLC, 11.8 µM.

As to `O=C1OC(c2ccccc2)=N/C1=C\c1ccc2ccccc2c1`, the TGI with OVCAR-4 ovarian, in the experiment with SNB-75 CNS, in the experiment with M14 melanoma, in the experiment with HCT-116 colon, in the experiment with U251 CNS and in the experiment on TK-10 renal was > 100 µM in each case. Moreover, the TGI with OVCAR-5 ovarian and in the experiment on A549 NSCLC was > 100 µM in each case.

In the case of `CC(C)CC1C(=O)N2CCC[C@H]2C2(O)O[C@](NC(=O)C3C=C4c5cccc6[nH]c(Br)c(c56)C[C@H]4N(C)C3)(C(C)C)C(=O)N12` (some centres undefined), the GI50 was 5.78 µM with OVCAR-4 ovarian; 5.55 µM with SNB-75 CNS; > 100 µM in the experiment on M14 melanoma; 9.4 µM in the experiment on U251 CNS; 5.06 µM in the experiment on TK-10 renal; 4.72 µM in the experiment with A549 NSCLC. For the same compound, the TGI in the experiment on OVCAR-4 ovarian, in the experiment with SNB-75 CNS, in the experiment with HOP-62 NSCLC, in the experiment with M14 melanoma, in the experiment with HCT-116 colon and in the experiment with U251 CNS was > 100 µM throughout. The TGI with TK-10 renal, in the experiment with OVCAR-5 ovarian and in the experiment on A549 NSCLC was > 100 µM each time.

On to `O=C(Nc1cccc(NC(=O)C(=O)C2CCC3=C(Sc4ccccc4N3)C2=O)n1)C(=O)C1CCC2=C(Sc3ccccc3N2)C1=O` (centres undefined), for which the TGI in the experiment on HCC-2998 colon was > 100 µM; in the experiment with OVCAR-4 ovarian it was 71.7 µM; in the experiment with SNB-75 CNS, 70.2 µM; with M14 melanoma, > 100 µM; in the experiment on HCT-116 colon it was > 100 µM; in the experiment on U251 CNS, > 100 µM. The TGI in the experiment on OVCAR-5 ovarian and in the experiment on A549 NSCLC was > 100 µM throughout.

Regarding `O=c1cc(-c2ccccc2)oc2cc(OCC(O)COc3ccc4c(=O)cc(-c5ccccc5)oc4c3)ccc12`, the TGI was 24.6 µM with HOP-62 NSCLC; > 100 µM in the experiment on M14 melanoma; > 100 µM with HCT-116 colon; 63.1 µM with U251 CNS; > 100 µM with TK-10 renal; > 100 µM with OVCAR-5 ovarian. In addition, in the experiment with A549 NSCLC, the TGI is > 100 µM.

As for `Cc1ccc2c(c1)C(C)Cc1c(ncnc1-n1cnc3cc(C)ccc31)N2C` (centres undefined), the GI50 in the experiment on HCC-2998 colon was 0.0422 µM; in the experiment with OVCAR-4 ovarian, 0.0729 µM; in the experiment with SNB-75 CNS, 0.0262 µM; with HOP-62 NSCLC, 0.0352 µM; with HCT-116 colon, 0.0316 µM; in the experiment with U251 CNS, 0.0362 µM. For the same compound, the GI50 is 0.0866 µM with TK-10 renal, 0.048 µM in the experiment with OVCAR-5 ovarian and 0.0421 µM with A549 NSCLC. Moreover, the TGI worked out at 16.3 µM with HCC-2998 colon; 19 µM in the experiment with OVCAR-4 ovarian; 13.4 µM with SNB-75 CNS; 15.6 µM in the experiment with HOP-62 NSCLC; 5.21 µM with HCT-116 colon; 12.1 µM with U251 CNS. The values for the TGI in the experiment with TK-10 renal, in the experiment on OVCAR-5 ovarian and in the experiment with A549 NSCLC were 21.1 µM, 22.2 µM and 13.4 µM, respectively.

With `C=CCCCn1ccc2ccccc21`, the TGI in the experiment on HCC-2998 colon, with SNB-75 CNS, with HOP-62 NSCLC, in the experiment with M14 melanoma, with HCT-116 colon and in the experiment with U251 CNS was > 100 µM each time. Also, the TGI with TK-10 renal, with OVCAR-5 ovarian and in the experiment on A549 NSCLC was > 100 µM each time.

Consider `CN(C)CCCNC(=O)c1ccc2oc3cc4ccccc4c(=O)n3c2c1`, for which the GI50 is 12.6 µM in the experiment on SNB-75 CNS; > 50 µM in the experiment on HOP-62 NSCLC; 30.3 µM in the experiment with M14 melanoma; 30.8 µM in the experiment with HCT-116 colon; 37.5 µM in the experiment on U251 CNS; 10.3 µM in the experiment with TK-10 renal. Further, in the experiment on A549 NSCLC, the GI50 is 27.6 µM. The TGI in the experiment on SNB-75 CNS was 33.1 µM; in the experiment on HOP-62 NSCLC, > 50 µM; in the experiment with M14 melanoma, > 50 µM; in the experiment on HCT-116 colon it was > 50 µM; with U251 CNS, > 50 µM; in the experiment with TK-10 renal, > 50 µM. Besides, the TGI with A549 NSCLC is > 50 µM.
